According to patent publication US20250289787A1, “HERBICIDAL 2-OXO-NICOTINIC ACID DERIVATIVES” (SYNGENTA CROP PROTECTION AG, priority 2022, published 2025):

Tests used:
Type in all cases: in vivo
Design in all cases: key: 5=81-100%; 4=61-80%; 3=41-60%; 2=21-40%; 1=1-20%; 0=no damage to the plant; -=not tested
[1] = system: Amaranthus palmeri (AMAPA); assay: Pre-emergence test, herbicidal damage; details: 1000 g/ha unless otherwise stated, evaluated after 13 days, five-point scale
[2] = system: Amaranthus retoflexus (AMARE); assay: Pre-emergence test, herbicidal damage; details: 1000 g/ha unless otherwise stated, evaluated after 13 days, five-point scale
[3] = system: Echinochloa crus-galli (ECHCG); assay: Pre-emergence test, herbicidal damage; details: 1000 g/ha unless otherwise stated, evaluated after 13 days, five-point scale
[4] = system: Zea mays (ZEAMX); assay: Pre-emergence test, herbicidal damage; details: 1000 g/ha unless otherwise stated, evaluated after 13 days, five-point scale
[5] = system: Ipomoea hederacea (IPOHE); assay: Pre-emergence test, herbicidal damage; details: 1000 g/ha unless otherwise stated, evaluated after 13 days, five-point scale
[6] = system: Setaria faberi (SETFA); assay: Pre-emergence test, herbicidal damage; details: 1000 g/ha unless otherwise stated, evaluated after 13 days, five-point scale
[7] = system: Amaranthus palmeri (AMAPA); assay: Post-emergence test, herbicidal damage; details: sprayed after 8 days cultivation, 1000 g/ha unless otherwise stated, evaluated after 13 days, five-point scale
In short: (§1)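 Spray at 1000 g/ha unless otherwise stated; vehicle acetone/water (50:50) with 0.5% Tween 20; applied to pots in a 24/16 °C glasshouse. Injury was assessed 13 days after application and banded into a five-point score, 5 denoting 81–100% damage.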

[8] = system: Amaranthus retoflexus (AMARE); assay: Post-emergence test, herbicidal damage; details: sprayed after 8 days cultivation, 1000 g/ha unless otherwise stated, evaluated after 13 days, five-point scale
In short: as §1

[9] = system: Echinochloa crus-galli (ECHCG); assay: Post-emergence test, herbicidal damage; details: sprayed after 8 days cultivation, 1000 g/ha unless otherwise stated, evaluated after 13 days, five-point scale
In short: as §1

[10] = system: Ipomoea hederacea (IPOHE); assay: Post-emergence test, herbicidal damage; details: sprayed after 8 days cultivation, 1000 g/ha unless otherwise stated, evaluated after 13 days, five-point scale
In short: as §1

[11] = system: Setaria faberi (SETFA); assay: Post-emergence test, herbicidal damage; details: sprayed after 8 days cultivation, 1000 g/ha unless otherwise stated, evaluated after 13 days, five-point scale
In short: as §1

[12] = system: Zea mays (ZEAMX); assay: Post-emergence test, herbicidal damage; details: sprayed after 8 days cultivation, 1000 g/ha unless otherwise stated, evaluated after 13 days, five-point scale
In short: as §1

SMILES	percentage damage caused to the plant, AMAPA [1]	percentage damage caused to the plant, AMARE [2]	percentage damage caused to the plant, ECHCG [3]	percentage damage caused to the plant, ZEAMX [4]	percentage damage caused to the plant, IPOHE [5]	percentage damage caused to the plant, SEFTA [6]	percentage damage caused to the plant, AMAPA [7]	percentage damage caused to the plant, AMARE [8]	percentage damage caused to the plant, ECHCG [9]	percentage damage caused to the plant, IPOHE [10]	percentage damage caused to the plant, SEFTA [11]	percentage damage caused to the plant, ZEAMX [12]
Cc1c(Cl)c(-c2ccc(Cl)c(Cl)c2)c(C(=O)O)c(=O)n1-c1ccc(Cl)cc1 [Compound 3, 5-chloro-1-(4-chlorophenyl)-4-(3,4-dichlorophenyl)-6-methyl-2-oxo-pyridine-3-carboxylic acid]	4 (4=61-80%)	2 (2=21-40%)	1 (1=1-20%)	0	0	2 (2=21-40%)	4 (4=61-80%)	4 (4=61-80%)	0	2 (2=21-40%)	1 (1=1-20%)	1 (1=1-20%)
Cc1cc(-c2ccc(Cl)c(Cl)c2)c(C(=O)O)c(=O)n1Cc1ccc(F)cc1F [Compound 31, 4-(3,4-dichlorophenyl)-1-[(2,4-difluorophenyl)methyl]-6-methyl-2-oxo-pyridine-3-carboxylic acid]	1 (1=1-20%)	1 (1=1-20%)	0	0	0	1 (1=1-20%)	1 (1=1-20%)	1 (1=1-20%)	1 (1=1-20%)	0	0	0
Cc1cc(-c2ccc(Cl)c(Cl)c2)c(C(=O)O)c(=O)n1-c1ncc(Cl)cc1F [Compound 18, 1-(5-chloro-3-fluoro-2-pyridyl)-4-(3,4-dichlorophenyl)-6-methyl-2-oxo-pyridine-3-carboxylic acid]	0	0	0	0	0	0	1 (1=1-20%)	0	1 (1=1-20%)	1 (1=1-20%)	0	1 (1=1-20%)
Cc1c(Cl)c(-c2ccc(Cl)c(Cl)c2)c(C(=O)O)c(=O)n1Cc1ccc(C(F)(F)F)cc1F [Compound 28, 5-chloro-4-(3,4-dichlorophenyl)-1-[[2-fluoro-4-(trifluoromethyl)phenyl]methyl]-6-methyl-2-oxo-pyridine-3-carboxylic acid]	4 (4=61-80%)	3 (3=41-60%)	1 (1=1-20%)	1 (1=1-20%)	1 (1=1-20%)	0	4 (4=61-80%)	3 (3=41-60%)	0	1 (1=1-20%)	1 (1=1-20%)	1 (1=1-20%)
Cc1cc(-c2ccc(Cl)c(Cl)c2)c(C(=O)O)c(=O)n1-c1ccc(F)cc1 [Compound 16, 4-(3,4-dichlorophenyl)-1-(4-fluorophenyl)-6-methyl-2-oxo-pyridine-3-carboxylic acid]	0	0	0	0	0	0	2 (2=21-40%)	1 (1=1-20%)	1 (1=1-20%)	1 (1=1-20%)	2 (2=21-40%)	1 (1=1-20%)
Cc1c(C2CC2)c(-c2ccc(Cl)c(Cl)c2)c(C(=O)O)c(=O)n1-c1ccc(F)cc1F [Compound 37, 5-cyclopropyl-4-(3,4-dichlorophenyl)-1-(2,4-difluorophenyl)-6-methyl-2-oxo-pyridine-3-carboxylic acid]	4 (4=61-80%)	3 (3=41-60%)	2 (2=21-40%)	1 (1=1-20%)	1 (1=1-20%)	1 (1=1-20%)	4 (4=61-80%)	3 (3=41-60%)	1 (1=1-20%)	2 (2=21-40%)	1 (1=1-20%)	1 (1=1-20%)
Cc1c(Cl)c(-c2ccc(Cl)c(Cl)c2)c(C(=O)O)c(=O)n1-c1cccc(C(F)(F)F)c1F [Compound 23, 5-chloro-4-(3,4-dichlorophenyl)-1-[2-fluoro-3-(trifluoromethyl)phenyl]-6-methyl-2-oxo-pyridine-3-carboxylic acid]	4 (4=61-80%)	4 (4=61-80%)	1 (1=1-20%)	0	0	1 (1=1-20%)	4 (4=61-80%)	4 (4=61-80%)	1 (1=1-20%)	1 (1=1-20%)	1 (1=1-20%)	1 (1=1-20%)
